Assays:
Assay type in all cases: in vivo, human
[1] = tested on: post-stroke patients having moderate to severe depression; test: Hamilton Rating Scale of Depression (HAM-D) in post-stroke patients having moderate to severe depression; settings: 600 or 900 mg/day oral; 12 weeks; consistent across various severity of baseline apathy
Source text: (§1) In 151 post-stroke patients having moderate to severe depression, the intervention-free data of Apathy Scale (AS), as a valid measure of apathy, and of Hamilton Rating Scale of Depression (HAM-D) and Beck Depression Inventory (BDI), as valid measures of depression, were collected and analyzed using the method of confirmatory factor analysis. HAM-D and BDI are fully validated and are widely used measures of the severity of depression. HAM-D (Hamilton, J Neurol. Neurosurg. Psychiatry. 23:56-62, 1960) is rated by a professional. BDI (Arch Gen Psychiatry. 4:561-571, 1961) is rated by a patient.
(§2) The 151 patients, who were evaluated at least once after treatment, included the 103 patients studied in Example 1. The 151 patients were divided in three groups each orally receiving placebo (51 patients) or nefiracetam at 600 mg/day (54 patients) or nefiracetam at 900 mg/day (46 patients).
(§3) The data at the end of 12 weeks were analyzed and summarized as follows: […]

[2] = tested on: post-stroke patients having moderate to severe depression; test: Apathy Scale (AS) in post-stroke patients having moderate to severe depression; settings: 600 or 900 mg/day oral, 12 weeks, especially high dose
Source text: Apathy Scale (AS) is an abbreviated version of the AES. Items and scoring of Papthy Scale can be found, for example, at Starkstein, et al., J Neuropsychiatry Clin. Neurosciences, 4: 134-139 (1992).
as §1, §2, §3

post-stroke patients [3] = test: Controlled clinical trial against placebo, symbol digit modality test (SDMT), cognitive function; settings: for change in cognitive function (SDMT): at 4 weeks, placebo 3.2; for average improvement in cognitive function (SDMT): last visit, placebo 4.2; for improvement in the SDMT scale: patients with cortical strokes, week 12, placebo 2.7
Source text: Cognitive function can be measured using a tool called the symbol digit modality test (SDMT). In this test, patients have a legend which links each digit to a specific graphical, non-text symbol. The patients have a pre-specified, fixed period of time to match, in writing, as many digits to a list of symbols as possible. The number of correctly matched digits to symbols provides a measure of a range of cognitive functions, including executive function, attention, memory, and motor function (Joy, et.al. Arch Clin Neuropsychol. 19:759-67, 2004; Joy, et.al. Clin Neuropsychol. 17:182-94; 2003)
(§4) In this trial, nefiracetam was administered orally to 103 post-stroke patients, who all have some degree of depression, for up to twelve weeks after the vascular event. Concurrently, 56 patients received placebo (placebo group). Of the 103 post-stroke patients treated with nefiracetam, 55 received 600 mg daily (600 mg group), and 48 received 900 mg daily (900 mg group). The three groups of patients were followed for up to 12 weeks, and evaluated at the end of week 4, the end of week 8, and the end of week 12, by measuring the Apathy Evaluation Scale (a symptom scale for measuring apathy), and by measuring SDMT (for measuring cognitive function).

post-stroke patients [4] = test: Controlled clinical trial against placebo, Apathy Evaluation Scale
Protocol: Apathy Evaluation Scale (AES) is used as a measure of apathy severity. Items and factor structure of AES are listed in Marin, et al. (Psychiatry Res. 1991; 38(2):143-62). The assessment, the impairment, as well as and the need of recovery of apathy and cognitive function after stroke are illustrated by Robert G. Robinson “The Clinical Neuropsychiatry of Stroke”, 1998, Cambridge University Press, pages 143, 222-225 and 292-293.
as §4

[5] = 600 and 900 mg daily oral, up to 12 weeks

In the case of `Cc1cccc(C)c1NC(=O)CN1CCCC1=O` [nefiracetam], the “reduction in depression measured by HAM-D versus placebo (in words)” value [1] is reported as “patients on placebo showed slightly more reduction in depression than did patients on active treatment”, the “reduction in apathy measured by the Apathy Scale versus placebo (in words)” value ([2]; consistent across moderate to severe and severe depression) is reported as “more reduction in apathy than did patients on placebo” and the “reduction in apathy measured by the Apathy Scale versus placebo (in words)” value ([2]; consistent across various severity of baseline apathy) is reported as “more reduction in apathy than did patients on placebo”. For the same compound, the “change in cognitive function (SDMT)” value (post-stroke patients [3]; 600 mg daily oral) was 4.1 point, the “average improvement in cognitive function (SDMT)” value (post-stroke patients [3]; 600 mg daily oral) was 5.7 points and the “improvement in the SDMT scale” value (post-stroke patients [3]; 600 mg daily oral) was 7 points. The “change in cognitive function (SDMT)” value (post-stroke patients [3]; 900 mg daily oral) was 4.4 point, the “average improvement in cognitive function (SDMT)” value (post-stroke patients [3]; 900 mg daily oral) was 6.6 points and the “improvement in the SDMT scale” value (post-stroke patients [3]; 900 mg daily oral) was 14.2 points. The “improvements in cognitive function as measured by the SDMT (in words)” value (post-stroke patients [3]; [5]) was “dose-dependent and time-dependent improvements in cognitive function”, the “improvement in apathy (Apathy Evaluation Scale)” value (post-stroke patients [4]; 600 mg daily oral, at 4 weeks, placebo 1.4) was 1.9 point and the “average improvement in apathy (Apathy Evaluation Scale)” value (shortened to “average improvement in apathy”) (post-stroke patients [4]; 600 mg daily oral, cortical stroke patients, last visit carried forward, placebo 1.0) was 3.4. The “improvement in apathy (Apathy Evaluation Scale)” value (post-stroke patients [4]; 600 mg daily oral, cortical strokes and significant baseline apathy (greater than 18), last visit, placebo 5.4) was 9.4 points, the “average improvement in apathy” value (post-stroke patients [4]; 600 mg daily oral, last visit (12 weeks), placebo 1.4) was 2.1 points and the “average improvement in apathy” value (post-stroke patients [4]; 600 mg daily oral, patients treated within 28 days of the stroke, placebo 0.6) was 1.3 points. For the same compound, the “improvement in apathy (Apathy Evaluation Scale)” value (post-stroke patients [4]; 900 mg daily oral, at 4 weeks, placebo 1.4) was 1.9 point, the “average improvement in apathy” value (post-stroke patients [4]; 900 mg daily oral, cortical stroke patients, last visit carried forward, placebo 1.0) was 5.2 points and the “improvement in apathy (Apathy Evaluation Scale)” value (post-stroke patients [4]; 900 mg daily oral, cortical strokes and significant baseline apathy (greater than 18), last visit, placebo 5.4) was 11.7 points. The “average improvement in apathy” value (post-stroke patients [4]; 900 mg daily oral, last visit (12 weeks), placebo 1.4) was 3.4 points, the “average improvement in apathy” value (post-stroke patients [4]; 900 mg daily oral, patients treated within 28 days of the stroke, placebo 0.6) was 6.1 points and the “change in apathy syndrome in comparison to the placebo group (in words)” value (post-stroke patients [4]; [5]) was “dose-dependent and time-dependent change in apathy syndrome”.

From patent US20100048634A1, “METHOD FOR TREATING APATHY SYNDROME” (priority 2005, published 2010)
